Test results published in patent US20140163095A1, “USE OF ERIBULIN IN THE TREATMENT OF BREAST CANCER” (priority 2012, published 2014).
Marks after values point to notes of the source that are not given here.

Legend:
[1] = test system: subjects with locally recurrent or metastatic HER2 negative breast cancer; experiment: Phase II first-line trial, safety outcomes
Protocol: A multi-center, single-arm, phase II clinical trial of eribulin mesylate was performed to evaluate the objective response rate (ORR) (according to RECIST v1.1) to first-line treatment with single-agent eribulin mesylate in subjects with locally recurrent or metastatic HER2 negative breast cancer. Secondary objectives included the safety and tolerability of eribulin mesylate, time to first response, duration of response (DOR), and progression free survival (PFS).

[2] = test system: locally recurrent or metastatic HER2 negative breast cancer; experiment: Phase II clinical trial of eribulin mesylate as first-line treatment (Part 2, additional data); format: in vivo, human
Excerpt: This example provides additional data obtained from the study described above in Example 2. The baseline demographics and characteristics of patients in the study are as set forth below in Table 6.

[3] = test system: locally advanced or metastatic breast cancer; experiment: Phase III clinical trial comparing eribulin mesylate and capecitabine; settings: for overall survival as compared to capecitabine: FIG. 6
Protocol: A global, randomized, open-label, two-parallel-arm, phase III clinical trial of eribulin (eribulin mesylate) and capecitabine was performed.
This study randomized 1102 patients who had up to three prior chemotherapy regimens, and no more than two prior regimens for advanced and/or metastatic disease. The prior regimens must have included an anthracycline and a taxane, either in the (neo) adjuvant setting or for locally advanced or metastatic disease. Patients must have had documented evidence of progression during or after their most recent anti-cancer therapy. […] Patients were randomized to receive either eribulin mesylate as an intravenous (IV) infusion of 1.4 mg/m^2 over 2-5 minutes on days 1 and 8 every 21 days or capecitabine as an oral administration of 2.5 g/m^2/day administered twice daily in two equal doses on days 1 to 14 every 21 days.
This study was designed to have co-primary endpoints, overall survival (OS) and progression free survival (PFS), with alpha spending 0.04 and 0.01, respectively.
Progression events (disease progression determined by Response Evaluation Criteria in Solid Tumors [RECIST, version 1.0]) were categorized as: (i) emergence of a new lesion/metastasis, defined here as a lesion identified at progression that had not been previously reported, (ii) increase in size of an existing (previously reported) lesion (target or non-target), and (iii) other PFS event, e.g., death, clinical progression, or censoring. Investigator review of disease progression was used as the primary analysis for these investigations. Where progression was determined by investigator review, no further scans were performed, leading to informative censoring of independent review data (approximately 20%). The number of new metastases observed by independent review was considered an under-estimate due to this considerable informative censoring. OS and PFS were compared between treatment arms using two-sided, stratified (geographic region and HER2 status) log-rank tests. The correlation between progression events and OS was investigated by Cox regression, incorporating the event as a time-dependent covariate. New metastasis-free survival, defined as time from randomization to death or progression due to appearance of a new metastasis (whichever occurs earlier), was also analyzed.

[4] = ER−/PR−/HER2−, n 2, CI not available
[5] = of patients with any new metastasis

`C=C1C[C@@H]2CC[C@@]34C[C@H]5O[C@H]6[C@@H](O3)[C@H]3O[C@H](CC[C@@H]3O[C@H]6[C@H]5O4)CC(=O)C[C@@H]3[C@@H](OC)[C@@H](C[C@H](O)CN)O[C@H]3C[C@H]3O[C@@H](CC[C@@H]1O2)C[C@@H](C)C3=C.CS(=O)(=O)O` [Eribulin, 11,15:18,21:24,28-Triepoxy-7,9-ethano-12,15-methano-9H,15H-furo[3,2-i]furo[2′,3′:5,6]pyrano[4,3-b][1,4]dioxacyclopentacosin-5(4H)-one, 2-[(2S)-3-amino-2-hydroxypropyl]hexacosahydro-3-methoxy-26-methyl-20,27-bis(methylene)-, (2R,3R,3aS,7R,8aS,9S,10aR,11S,12R,13aR,13bS,15S,18S,21S,24S,26R,28R,29aS)-methanesulfonate (salt)] was tested, and the “incidence of markedly abnormal lab value: low platelets” value ([1]; 1/51) was 2%, the “leucopenia (treatment-related SAE)” value ([1]; 1 patient) was 1.8% and the “patients with an abnormal but not clinically significant finding” value ([1]; 3/52, throughout the study) was 5.8%. The “Febrile neutropenia (treatment-related SAE)” value ([1]; 3 patients) was 5.4%, the “Treatment-related SAEs” value ([1]; 5 patients) was 8.9% and the “patients who discontinued the study due to an AE” value ([1]; 6 patients) was 10.7%. The “incidence of markedly abnormal lab value: low lymphocytes” value ([1]; 8/44) was 18.2%, the “incidence of markedly abnormal lab value: low hemoglobin” value ([1]; 8/55) was 14.5% and the “patients with dose interrupted/delayed due to treatment-related AEs” value ([1]; 20 patients) was 35.7%. The “patients with dose reduced due to treatment-related AEs” value ([1]; 20 patients) was 35.7%, the “Treatment-related AEs leading to dose adjustment (interruption/delay, reduction, or discontinuation)” value ([1]; 30 patients) was 53.6% and the “incidence of markedly abnormal lab value: low leukocytes” value ([1]; 31/54) was 57.4%. For the same compound, the “patients with a treatment-related AE with CTCAE grade ¾” value ([1]; 36 patients) was 64.3%, the “incidence of markedly abnormal lab value: low neutrophils” value ([1]; 41/53) was 77.4% and the “Treatment-related AE: Alopecia” value ([1]; All grades, N = 56) was 47 (83.9) n (%). The “Treatment-related AE: Anemia” value ([1]; All grades, N = 56) was 20 (35.7) n (%), the “Treatment-related AE: Constipation” value ([1]; All grades, N = 56) was 15 (26.8) n (%) and the “Treatment-related AE: Diarrhea” value ([1]; All grades, N = 56) was 14 (25.0) n (%). The “Treatment-related AE: Fatigue” value ([1]; All grades, N = 56) was 34 (60.7) n (%), the “Treatment-related AE: Leukopenia” value ([1]; All grades, N = 56) was 19 (33.9) n (%) and the “Treatment-related AE: Nausea” value ([1]; All grades, N = 56) was 27 (48.2) n (%). For the same compound, the “Treatment-related AE: Neutropenia” value ([1]; All grades, N = 56) was 40 (71.4) n (%), the “Treatment-related AE: Peripheral neuropathy” value ([1]; All grades, N = 56) was 32 (57.1) n (%) and the “Treatment-related AE: Anemia” value ([1]; Grade 3/4, N = 56) was 2 (3.6) n (%). For the same compound, the “Treatment-related AE: Constipation” value ([1]; Grade 3/4, N = 56) was 0 n (%), the “Treatment-related AE: Diarrhea” value ([1]; Grade 3/4, N = 56) was 0 n (%) and the “Treatment-related AE: Fatigue” value ([1]; Grade 3/4, N = 56) was 1 (1.8) n (%). For the same compound, the “Treatment-related AE: Leukopenia” value ([1]; Grade 3/4, N = 56) was 12 (21.4) n (%), the “Treatment-related AE: Nausea” value ([1]; Grade 3/4, N = 56) was 0 n (%) and the “Treatment-related AE: Neutropenia” value ([1]; Grade 3/4, N = 56) was 28 (50.0) n (%). The “Treatment-related AE: Peripheral neuropathy” value ([1]; Grade 3/4, N = 56) was 11 (19.6) n (%), the “Alopecia, neutropenia, fatigue, and peripheral neuropathy (most commonly observed treatment-related AEs), each occurring in patients” value ([1]; human, in vivo) was > 50% and the “duration of grade ¾ peripheral neuropathy (median)” value ([1]; human, in vivo) was 2.3 months. The “median time to first occurrence of peripheral neuropathy” value ([1]; human, in vivo) was 4 months, the “AE requiring drug withdrawal in the remaining discontinued patient” value ([1]; in words) was “prolonged QT interval requiring drug withdrawal” and the “grade ¾ neutropenia, patients” value ([1]; most common grade ¾ AE) was 50%. The “Febrile neutropenia (grade 3/4)” value ([1]; number of patients) was 4 patients, the “discontinuations for which peripheral neuropathy was responsible” value ([1]; of the 6 events resulting in discontinuations) was 5 and the “DOR (duration of response), Median months (95% CI)” value ([2]; ALL, 16 responders) was 5.8 (4.7-10.6) months. The “TTR (time to first response), Median months (95% CI)” value ([2]; ALL, 16 responders) was 1.4 (1.2-2.7) months, the “TTR (time to first response), Median months (95% CI)” value ([2]; ALL, 16 responders, listed as eribulin) was 1.4 months and the “PFS, Median months (95% CI)” value ([2]; ALL, N 56) was 6.8 (4.4-7.6) months. The “PFS, Median months (95% CI)” value ([2]; ALL, N 56, listed as eribulin) was 6.8 months, the “Clinical benefit rate (CR + PR + ≧6 months SD)” value ([2]; ALL, N = 56) was 29 (51.8) n (%) and the “Complete response (CR)” value ([2]; ALL, N = 56) was 0 n (%). The “Disease control rate (CR + PR + SD)” value ([2]; ALL, N = 56) was 42 (75.0) n (%), the “Not evaluable/unknown (response category)” value (“Not evaluable/unknown” below) ([2]; ALL, N = 56) was 3 (5.4) n (%) and the “Objective response rate (ORR)” value ([2]; ALL, N = 56) was 16 (28.6) n (%). For the same compound, the “Partial response (PR)” value ([2]; ALL, N = 56) was 16 (28.6) n (%), the “Progressive disease (PD)” value ([2]; ALL, N = 56) was 11 (19.6) n (%) and the ORR ([2]; ER+ subgroup) was 34.1%. For the same compound, the disease control rate ([2]; ER+ subgroup) was 85.4%, the “DOR, Median months (95% CI)” value ([2]; ER+, n 14) was 7.4 (4.6-27.5) months and the “TTR, Median months (95% CI)” value ([2]; ER+, n 14) was 2.0 (1.3-2.7) months. For the same compound, the “PFS, Median months (95% CI)” value ([2]; ER+, n 41) was 7.4 (6.1-11.9) months, the “PFS, Median months (95% CI)” value ([2]; ER+, n 41, listed as eribulin) was 7.4 months and the “Clinical benefit rate (CR + PR + ≧6 months SD)” value ([2]; ER+, n = 41) was 26 (63.4) n (%). The “Complete response (CR)” value ([2]; ER+, n = 41) was 0 n (%), the “Disease control rate (CR + PR + SD)” value ([2]; ER+, n = 41) was 35 (85.4) n (%) and the “Not evaluable/unknown” value ([2]; ER+, n = 41) was 1 (2.4) n (%). The “Objective response rate (ORR)” value ([2]; ER+, n = 41) was 14 (34.1) n (%), the “Partial response (PR)” value ([2]; ER+, n = 41) was 14 (34.1) n (%) and the “Progressive disease (PD)” value ([2]; ER+, n = 41) was 5 (12.2) n (%). The “DOR, Median months” value [2, 4] was 5.2* months, the “TTR, Median months” value [2, 4] was 1.1* months and the “PFS, Median months (95% CI)” value ([2]; ER−/PR−/HER2−, n 12) was 3.4 (1.2-6.8) months. The “sum of target lesion diameters from baseline to postbaseline nadir” value ([2]; FIG. 12, in words) was “majority of patients experienced a decrease”, the “Objective response rate (ORR)” value ([2]; Triple negative (ER−/PR−/HER2−), n = 12) was 2 (16.1) n (%) and the “Clinical benefit rate (CR + PR + ≧6 months SD)” value ([2]; Triple negative, n = 12) was 3 (25.0) n (%). The “Complete response (CR)” value ([2]; Triple negative, n = 12) was 0 n (%), the “Disease control rate (CR + PR + SD)” value ([2]; Triple negative, n = 12) was 6 (50.0) n (%) and the “Not evaluable/unknown” value ([2]; Triple negative, n = 12) was 1 (8.3) n (%). For the same compound, the “Partial response (PR)” value ([2]; Triple negative, n = 12) was 2 (16.7) n (%), the “Progressive disease (PD)” value ([2]; Triple negative, n = 12) was 5 (41.7) n (%) and the ORR ([2]; all patients (16/56)) was 28.6%. The “median PFS” value ([2]; patients who did not receive prior A/T) was 5.7 months, the “median PFS” value ([2]; patients who had received prior A/T) was 5.9 months and the “clinical benefit rate (CBR)” value ([2]; patients with prior A/T (15/33)) was 45.5%. For the same compound, the ORR ([2]; patients with prior neo/adjuvant anthracyclines and/or taxanes (A/T) (9/33)) was 27.3%, the “time to a new metastasis observed in the CNS, lungs, or liver” value ([3]; FIG. 5, in words) was “trend favouring eribulin over capecitabine” and the “overall survival as compared to capecitabine” value ([3]; HER2 negative patients, in words) was “increased overall survival”. For the same compound, the “median overall survival (OS)” value ([3]; all randomized patients) was 15.9 months, the “median progression-free survival (PFS)” value ([3]; all randomized patients) was 4.1 months and the “median survival as compared to capecitabine” value ([3]; breast cancers not characterized as triple negative, FIG. 7B, in words) was “similar”. The “New metastasis site: Bone, patients” value ([3]; count) was 60, the “New metastasis site: Breast, patients” value ([3]; count) was 12 and the “New metastasis site: CNS (brain/spine), patients” value ([3]; count) was 13. The “New metastasis site: Chest wall, patients” value ([3]; count) was 15, the “New metastasis site: Liver, patients” value ([3]; count) was 71 and the “New metastasis site: Lung, patients” value ([3]; count) was 59. The “New metastasis site: Lymph nodes, patients” value ([3]; count) was 64, the “New metastasis site: Other, patients” value ([3]; count) was 30 and the “New metastasis site: Skin, patients” value ([3]; count) was 23. For the same compound, the “Number of patients with any new metastasis observed” value ([3]; count, investigator review, intent-to-treat) was 291, the “hazard ratio, overall survival” value ([3]; eribulin versus capecitabine, 95% CI 0.77, 1.00) was 0.88 and the “hazard ratio, progression-free survival” value ([3]; eribulin versus capecitabine, 95% CI 0.93, 1.25) was 1.08. The “1-year OS relative to capecitabine” value ([3]; in words) was “statistically significant improvement”, the “new metastasis-free survival, median difference in favour of eribulin” value ([3]; independent review) was 0.3 months and the “new metastasis-free survival, median difference in favour of eribulin” value ([3]; investigator review) was 0.6 months. For the same compound, the “patients with progression due to a new metastasis” value ([3]; investigator review) was 48.9%, the “patients with progression due to increase in the size of a pre-existing lesion” value ([3]; investigator review) was 26.5% and the “patients with progression due to other reasons such as death and clinical progression” value ([3]; investigator review) was 24.5%. The “patients with any new metastasis observed, percentage” value ([3]; investigator review, intent-to-treat) was “(52.5) %”, the “HR, new metastasis-free survival” value ([3]; investigator review, eribulin versus capecitabine) was 0.90 and the “New metastasis site: Bone, percentage” value [3, 5] was “(20.6) %”. The “New metastasis site: Breast, percentage” value [3, 5] was “(4.1) %”, the “New metastasis site: CNS (brain/spine), percentage” value [3, 5] was “(4.5) %” and the “New metastasis site: Chest wall, percentage” value [3, 5] was “(5.2) %”. For the same compound, the “New metastasis site: Liver, percentage” value [3, 5] was “(24.4) %”, the “New metastasis site: Lung, percentage” value [3, 5] was “(20.3) %” and the “New metastasis site: Lymph nodes, percentage” value [3, 5] was “(22.0) %”. The “New metastasis site: Other, percentage” value [3, 5] was “(10.3) %”, the “New metastasis site: Skin, percentage” value [3, 5] was “(7.9) %” and the “median OS longer with eribulin compared with capecitabine” value ([3]; patients whose disease progressed due to a new metastasis) was 2.6 months. The “Median OS” value ([3]; patients whose disease progressed due to other events) was 16.7 months, the “Median OS” value ([3]; patients with progression due to new metastasis) was 15.5 months and the “Median OS” value ([3]; patients with progression due to pre-existing lesion) was 17.4 months. The “HR, overall survival” value ([3]; progression due to new metastasis, eribulin versus capecitabine) was 0.81, the “HR, overall survival” value ([3]; progression due to other events, eribulin versus capecitabine) was 0.78 and the “HR, overall survival” value ([3]; progression due to pre-existing lesion, eribulin versus capecitabine) was 1.13. For the same compound, the “median survival as compared to capecitabine” value ([3]; triple negative breast cancers, FIG. 7A, in words) was “statistically significant increase” and the “overall survival as compared to capecitabine” value ([3]; triple negative patients, in words) was “most significant improvement”.
